Laboratory results published in patent US11459312B2, “Sulphur substituted 3-oxo-2,3-dihydropyridazine-4-carboxamides” (Bayer Aktiengesellschaft, priority 2017, dated 2022).

What follows are molecules tested against T1, AHR (Homo sapiens, UniProt P35869) (assay: In vitro assay 1: AHR-luc transactivation assay, antagonism in human cell line (U87 glioblastoma cells, kynurenic acid prestimulated)). Details: firefly luciferase DRE reporter, 150 μM kynurenic acid, 20 hours, read-out: Assay 1: AHR-luc Hum Antagonism IC50.
T1 sequence (P35869 11-848): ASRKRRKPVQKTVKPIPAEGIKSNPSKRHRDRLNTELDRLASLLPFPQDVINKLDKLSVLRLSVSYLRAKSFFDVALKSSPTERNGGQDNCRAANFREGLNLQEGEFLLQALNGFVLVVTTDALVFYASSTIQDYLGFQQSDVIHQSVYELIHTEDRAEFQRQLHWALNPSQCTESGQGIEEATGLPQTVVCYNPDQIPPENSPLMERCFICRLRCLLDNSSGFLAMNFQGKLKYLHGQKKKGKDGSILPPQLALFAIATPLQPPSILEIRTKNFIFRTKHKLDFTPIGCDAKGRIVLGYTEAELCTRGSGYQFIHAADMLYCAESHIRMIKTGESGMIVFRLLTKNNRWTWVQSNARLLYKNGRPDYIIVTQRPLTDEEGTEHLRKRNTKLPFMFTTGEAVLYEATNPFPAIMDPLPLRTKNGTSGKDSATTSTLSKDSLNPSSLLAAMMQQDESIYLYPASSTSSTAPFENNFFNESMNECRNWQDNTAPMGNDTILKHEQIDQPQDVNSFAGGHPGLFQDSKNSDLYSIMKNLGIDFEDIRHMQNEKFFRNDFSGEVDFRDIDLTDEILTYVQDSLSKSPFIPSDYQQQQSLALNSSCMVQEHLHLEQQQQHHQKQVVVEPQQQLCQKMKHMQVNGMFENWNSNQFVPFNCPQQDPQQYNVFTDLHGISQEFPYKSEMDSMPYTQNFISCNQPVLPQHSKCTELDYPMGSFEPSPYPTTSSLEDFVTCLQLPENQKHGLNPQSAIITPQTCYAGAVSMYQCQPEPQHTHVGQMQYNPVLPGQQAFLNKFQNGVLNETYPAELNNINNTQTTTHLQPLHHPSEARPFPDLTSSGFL
Format: cell-based
Parameters: U87 glioblastoma cells (ATCC) endogenously expressing AHR; host or cells: U87 glioblastoma cells, stably transfected with DRE-firefly luciferase and renilla reporter constructs only
Protocol: Transactivation Assay in Human Cell Line (In Vitro Assays 1 and 2)
Transactivation assays were carried out in U87 glioblastoma cells (ATCC) endogenously expressing AHR. In addition the cells were stably transfected with an AHR inducible firefly luciferase reporter gene construct that carried AHR-binding sites (DRE) in its promoter and a renilla reporter gene construct with constitutively active promoter. Kynurenic acid is an endogenous AHR activating ligand and was used to prestimulate test cells prior to testing the antagonistic properties of compounds.
In Vitro Assay 1: Antagonism in Human Cell Line
Cells in medium (tryptophan free RPMI, 1% FCS, 2 mM Glutamine) supplemented with 150 μM kynurenic acid were grown for 20 hours in absence (negative control) or presence of increasing concentrations of test compounds (typical dilutions: […], 0.25 nmol/L, 0.89 nmol/L; 3.1 nmol/L, 11 nmol/L, 38 nmol/L, 130 nmol/L, 470 nmol/L, 1.6 μmol/L, 5.7 μmol/L and 20 μmol/L in duplicates). As positive inhibition control cells supplemented with 150 μM kynurenic acid were incubated in presence of 5 μM Staurosporin. Normalization was done by positive and negative controls.
Firefly luciferase and Renilla activity was determined by the DualGlo Luciferase Assay System (Promega, #2920). Renilla activity was used to assess toxic effects of compounds.
`O=C(N[C@@H]1C[S+]([O-])C[C@@H]1O)c1cc(-c2ccc(Cl)cc2)nn(-c2cccc(F)c2)c1=O` (single isomer, unassigned) [Example 29, 6-(4-chlorophenyl)-2-(3-fluorophenyl)-N-[(cis)-4-hydroxy-1-oxidotetrahydro-thiophen-3-yl]-3-oxo-2,3-dihydropyridazine-4-carboxamide] showed an IC50 of 301 nM.
`O=C(N[C@@H]1C[S+]([O-])C[C@@H]1O)c1cc(-c2ccc(C(F)(F)F)cc2)nn(-c2cccnc2)c1=O` (single isomer, unassigned) [Example 34, N-[(cis)-4-hydroxy-1-oxidotetrahydro-thiophen-3-yl]-3-oxo-2-(pyridin-3-yl)-6-[4-(trifluoromethyl)phenyl]-2,3-dihydropyridazine-4-carboxamide] gave an IC50 of 78.8 nM.
In the case of `O=C(N[C@@H]1C[S+]([O-])C[C@@H]1O)c1cc(-c2ccc(C(F)(F)F)cc2)nn(-c2cccnc2)c1=O` (single isomer, unassigned) [Example 35, N-[(cis)-4-hydroxy-1-oxidotetrahydro-thiophen-3-yl]-3-oxo-2-(pyridin-3-yl)-6-[4-(trifluoromethyl)phenyl]-2,3-dihydropyridazine-4-carboxamide], the IC50 is reported as 272 nM.
Molecule `O=C(N[C@@H]1C[S+]([O-])C[C@@H]1O)c1cc(-c2ccc(C(F)(F)F)cc2)nn(-c2cccnc2)c1=O` (single isomer, unassigned) [Example 36, N-[(cis)-4-hydroxy-1-oxidotetrahydro-thiophen-3-yl]-3-oxo-2-(pyridin-3-yl)-6-[4-(trifluoromethyl)phenyl]-2,3-dihydropyridazine-4-carboxamide] has an IC50 of 295 nM.
Molecule `O=C(N[C@@H]1C[S+]([O-])C[C@@H]1O)c1cc(-c2ccc(C(F)(F)F)cc2)nn(-c2cccnc2)c1=O` (single isomer, unassigned) [Example 37, N-[(cis)-4-hydroxy-1-oxidotetrahydro-thiophen-3-yl]-3-oxo-2-(pyridin-3-yl)-6-[4-(trifluoromethyl)phenyl]-2,3-dihydropyridazine-4-carboxamide] has an IC50 of 150 nM.
Work on `C[C@@H](CS(C)(=N)=O)NC(=O)c1cc(-c2ccc(C(F)(F)F)cc2)nn(-c2cnn(C)c2)c1=O` (single isomer, unassigned) [Example 39] yielded an IC50 of 133 nM.
`C[C@@H](CS(C)(=N)=O)NC(=O)c1cc(-c2ccc(C(F)(F)F)cc2)nn(-c2cnn(C)c2)c1=O` (single isomer, unassigned) [Example 40] showed an IC50 of 80.3 nM.
With `N=S1(=O)C[C@H](O)[C@H](NC(=O)c2cc(-c3ccc(Cl)cc3)nn(-c3cccc(F)c3)c2=O)C1` (single isomer, unassigned) [Example 43, 6-(4-chlorophenyl)-2-(3-fluorophenyl)-N-[(cis)-4-hydroxy-1-imino-1-oxidotetrahydro-1H-1lambda4-thiophen-3-yl]-3-oxo-2,3-dihydropyridazine-4-carboxamide] the IC50 was 43.8 nM.
`N=S1(=O)C[C@H](O)[C@H](NC(=O)c2cc(-c3ccc(Cl)cc3)nn(-c3cccc(F)c3)c2=O)C1` (single isomer, unassigned) [Example 46, 6-(4-chlorophenyl)-2-(3-fluorophenyl)-N-[(cis)-4-hydroxy-1-imino-1-oxidotetrahydro-1H-1lambda4-thiophen-3-yl]-3-oxo-2,3-dihydropyridazine-4-carboxamide] showed an IC50 of 103 nM.
`CS(=N)(=O)CCNC(=O)c1cc(-c2ccc(Cl)cc2)nn(-c2cccc(F)c2)c1=O` (single isomer, unassigned) [Example 53, 6-(4-Chlorophenyl)-2-(3-fluorophenyl)-N-[2-(S-methylsulfonimidoyl)ethyl]-3-oxo-2,3-dihydropyridazine-4-carboxamide] showed an IC50 of 843 nM.
For `CS(=N)(=O)CCNC(=O)c1cc(-c2ccc(Cl)cc2)nn(-c2cccc(F)c2)c1=O` (single isomer, unassigned) [Example 54, 6-(4-Chlorophenyl)-2-(3-fluorophenyl)-N-[2-(S-methylsulfonimidoyl)ethyl]-3-oxo-2,3-dihydropyridazine-4-carboxamide], the IC50 was 581 nM.
`O=C(N[C@H]1CS(=O)(=O)C[C@H]1O)c1cc(-c2ccc(Cl)cc2)nn(-c2cccc(F)c2)c1=O` (single isomer, unassigned) [Example 56, 6-(4-Chlorophenyl)-2-(3-fluorophenyl)-N-[(cis)-4-hydroxy-1,1-dioxidotetrahydrothiophen-3-yl]-3-oxo-2,3-dihydropyridazine-4-carboxamide] was tested, and the IC50 was 65.3 nM.
For `O=C(N[C@@H]1C[S+]([O-])C[C@@H]1O)c1cc(-c2ccc(Cl)cc2)nn(-c2cccc(F)c2)c1=O` (single isomer, unassigned; (+)) [Example 27, (+)-6-(4-chlorophenyl)-2-(3-fluorophenyl)-N-[(cis)-4-hydroxy-1-oxidotetrahydro-thiophen-3-yl]-3-oxo-2,3-dihydropyridazine-4-carboxamide], the IC50 was 93.5 nM.
`O=C(N[C@@H]1C[S+]([O-])C[C@@H]1O)c1cc(-c2ccc(Cl)cc2)nn(-c2cccc(F)c2)c1=O` (single isomer, unassigned; (+)) [Example 31, (+)-6-(4-chlorophenyl)-2-(3-fluorophenyl)-N-[(cis)-4-hydroxy-1-oxidotetrahydro-thiophen-3-yl]-3-oxo-2,3-dihydropyridazine-4-carboxamide] gave an IC50 of 145 nM.
In the case of `O=C(N[C@@H]1C[S+]([O-])C[C@@H]1O)c1cc(-c2ccc(Cl)cc2)nn(-c2cccc(F)c2)c1=O` (single isomer, unassigned; (-)) [Example 28, (−)-6-(4-chlorophenyl)-2-(3-fluorophenyl)-N-[(cis)-4-hydroxy-1-oxidotetrahydro-thiophen-3-yl]-3-oxo-2,3-dihydropyridazine-4-carboxamide], the IC50 is reported as 13.4 nM.
Work on `O=C(N[C@@H]1C[S+]([O-])C[C@@H]1O)c1cc(-c2ccc(Cl)cc2)nn(-c2cccc(F)c2)c1=O` (single isomer, unassigned; (-)) [Example 30, (−)-6-(4-chlorophenyl)-2-(3-fluorophenyl)-N-[(cis)-4-hydroxy-1-oxidotetrahydro-thiophen-3-yl]-3-oxo-2,3-dihydropyridazine-4-carboxamide] yielded an IC50 of 210 nM.
`O=C(N[C@@H]1CCS(=O)(=O)C1)c1cc(-c2ccc(Cl)cc2)nn(-c2cccc(F)c2)c1=O` (stereo in doubt) [Example 58, 6-(4-Chlorophenyl)-N-(1,1-dioxidotetrahydrothiophen-3-yl)-2-(3-fluorophenyl)-3-oxo-2,3-dihydropyridazine-4-carboxamide] showed an IC50 of 145 nM.
`CSC[C@H](C)NC(=O)c1cc(-c2ccc(Cl)cc2)nn(-c2cccc(F)c2)c1=O` [Example 1, 6-(4-Chlorophenyl)-2-(3-fluorophenyl)-N-[(2S)-1-(methylsulfanyl)propan-2-yl]-3-oxo-2,3-dihydropyridazine-4-carboxamide] was tested, and the IC50 was 52.6 nM.
In the case of `C[C@@H](CS(C)(=O)=O)NC(=O)c1cc(-c2ccc(Cl)cc2)nn(-c2cccc(F)c2)c1=O` [Example 2, 6-(4-Chlorophenyl)-2-(3-fluorophenyl)-N-[(2S)-1-(methylsulfonyl)propan-2-yl]-3-oxo-2,3-dihydropyridazine-4-carboxamide], the IC50 is reported as 147 nM.
Molecule `CSC[C@H](C)NC(=O)c1cc(-c2ccc(C(F)(F)F)cc2)nn(-c2cnn(C)c2)c1=O` [Example 9, 2-(1-Methyl-1H-pyrazol-4-yl)-N-[(2S)-1-(methylsulfanyl)propan-2-yl]-3-oxo-6-[4-(trifluoromethyl)phenyl]-2,3-dihydropyridazine-4-carboxamide] has an IC50 of 6.99 nM.
`C[C@@H](CS(C)(=O)=O)NC(=O)c1cc(-c2ccc(C(F)(F)F)cc2)nn(-c2cnn(C)c2)c1=O` [Example 22, 2-(1-Methyl-1H-pyrazol-4-yl)-N-[(2S)-1-(methylsulfonyl)propan-2-yl]-3-oxo-6-[4-(trifluoromethyl)phenyl]-2,3-dihydropyridazine-4-carboxamide] was tested, and the IC50 was 21.9 nM.
